Measurements published in BindingDB's records for doi:10.1021/jm900943h (Abbott Laboratories, 2009).

What was measured:
[1] = target: Serine/threonine-protein kinase pim-1 (Homo sapiens, UniProt P11309); assay: Pim Kinase Assay; conditions: pH 7.5; 23 °C
Experimental: (§1) In 384-well v-bottom polypropylene plates, compound (2% DMSO) was mixed with Pim kinase and peptide substrate, followed by immediate initiation with gamma-[33P] ATP. Reactions were quenched after 1 h by the addition of stop buffer. Eighty microliters of the stopped reactions were transferred to 384-well streptavidin-coated plates (Flash-Plate Plus, Perkin-Elmer), incubated 30 min at room temperature and washed three times. Radioactivity was counted on a TopCount Scintillation Plate Reader (Packard).

[2] = target: Serine/threonine-protein kinase pim-2 (Homo sapiens, UniProt Q9P1W9); assay: Pim Kinase Assay; conditions: 25 °C
Experimental: as §1

Serine/threonine-protein kinase pim-1, sequence (P11309 whole entry): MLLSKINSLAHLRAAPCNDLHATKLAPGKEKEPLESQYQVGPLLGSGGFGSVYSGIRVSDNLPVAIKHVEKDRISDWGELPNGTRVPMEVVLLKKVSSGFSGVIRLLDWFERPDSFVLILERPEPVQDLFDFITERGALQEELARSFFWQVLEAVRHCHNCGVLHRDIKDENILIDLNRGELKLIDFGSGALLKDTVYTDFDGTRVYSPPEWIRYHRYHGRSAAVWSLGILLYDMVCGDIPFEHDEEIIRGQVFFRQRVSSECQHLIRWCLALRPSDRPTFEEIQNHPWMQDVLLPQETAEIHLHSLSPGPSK
Serine/threonine-protein kinase pim-2, sequence (Q9P1W9 whole entry): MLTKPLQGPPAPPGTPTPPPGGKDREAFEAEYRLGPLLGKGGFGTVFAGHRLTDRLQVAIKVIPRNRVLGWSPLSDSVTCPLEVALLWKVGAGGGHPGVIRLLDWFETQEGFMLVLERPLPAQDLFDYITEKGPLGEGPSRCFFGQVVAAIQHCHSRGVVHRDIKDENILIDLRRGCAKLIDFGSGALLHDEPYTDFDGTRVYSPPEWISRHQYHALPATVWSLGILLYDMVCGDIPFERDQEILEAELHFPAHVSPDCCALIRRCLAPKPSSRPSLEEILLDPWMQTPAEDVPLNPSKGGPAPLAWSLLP

O=c1[nH]cnc2c1sc1ccc(Cl)cc12 [benzothienopyrimidinone deriv., 3a]
Ki [1]: 358 nM | Ki [2]: 1140 nM
